Laboratory results: PubChem BioAssay AID248 (DTP/NCI, 2004)
Where “and” joins values, the source holds several entries; their conditions need not be identical. Equal entries are not always repeated. Toxic doses and inconclusive results are not listed. Square brackets hold non-standard residues; d marks the D form. Peptide text beside a SMILES is read from it. * marks the point of attachment. ξ: configuration not given here. Cbz = O=C(OCc1ccccc1)*; ξV = CC(C)C(N)C(=O)O

System: L1210 leukemia ip in BDF1 mice, survival T/C
Experiment: NCI In Vivo Anticancer Drug Screen. Data for tumor model L1210 Leukemia (intraperitoneal) in B6D2F1 (BDF1) mice
Conditions: endpoint: mean survival time, higher = longer survival
Method in brief: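 Ratio derived from survival: compound-dosed mice over vehicle-dosed mice, all bearing a transplantable tumor.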

[1] = dose: 100.0 mg/kg/injection, schedule: Q01DX009 (sc), vehicle: olive oil, sesame oil, peanut oil
[2] = dose: 100.0 mg/kg/injection, schedule: Q04DX003 (sc), vehicle: olive oil, sesame oil, peanut oil
[3] = dose: 200.0 mg/kg/injection, schedule: Q01DX009 (sc), vehicle: olive oil, sesame oil, peanut oil
[4] = dose: 200.0 mg/kg/injection, schedule: Q04DX003 (sc), vehicle: olive oil, sesame oil, peanut oil
[5] = dose: 400.0 mg/kg/injection, schedule: Q01DX009 (sc), vehicle: olive oil, sesame oil, peanut oil
[6] = dose: 400.0 mg/kg/injection, schedule: Q04DX003 (sc), vehicle: olive oil, sesame oil, peanut oil
[7] = dose: 25.0 mg/kg/injection, schedule: Q04DX002 (ip), vehicle: Klucel (hydroxypropylcellulose) (HPC)
[8] = dose: 50.0 mg/kg/injection, schedule: Q04DX002 (ip), vehicle: Klucel (hydroxypropylcellulose) (HPC)
[9] = dose: 100.0 mg/kg/injection, schedule: Q04DX002 (ip), vehicle: Klucel (hydroxypropylcellulose) (HPC)
[10] = dose: 100.0 mg/kg/injection, schedule: Q04DX003 (ip), vehicle: Klucel (hydroxypropylcellulose) (HPC)
[11] = dose: 200.0 mg/kg/injection, schedule: Q04DX003 (ip), vehicle: Klucel (hydroxypropylcellulose) (HPC)
[12] = dose: 400.0 mg/kg/injection, schedule: Q04DX003 (ip), vehicle: Klucel (hydroxypropylcellulose) (HPC)
[13] = dose: 100.0 mg/kg/injection, schedule: Q01DX001 (ip), vehicle: saline
[14] = dose: 200.0 mg/kg/injection, schedule: Q01DX001 (ip), vehicle: saline
[15] = dose: 400.0 mg/kg/injection, schedule: Q01DX001 (ip), vehicle: saline
[16] = dose: 100.0 mg/kg/injection, schedule: Q01DX009 (ip), vehicle: Klucel (hydroxypropylcellulose) (HPC)
[17] = dose: 200.0 mg/kg/injection, schedule: Q01DX009 (ip), vehicle: Klucel (hydroxypropylcellulose) (HPC)
[18] = dose: 400.0 mg/kg/injection, schedule: Q01DX009 (ip), vehicle: Klucel (hydroxypropylcellulose) (HPC)
[19] = dose: 50.0 mg/kg/injection, schedule: Q01DX001 (ip), vehicle: carboxymethylcellulose (CMC)
[20] = dose: 100.0 mg/kg/injection, schedule: Q01DX001 (ip), vehicle: carboxymethylcellulose (CMC)
[21] = dose: 200.0 mg/kg/injection, schedule: Q01DX001 (ip), vehicle: carboxymethylcellulose (CMC)

## CCCC(=O)c1cc(C)sc1C
[1]
  T/C: 90 % of control
[2]
  T/C: 100 % of control
[3]
  T/C: 87 % of control
[4]
  T/C: 93 % of control
[5]
  T/C: 99 % of control
[6]
  T/C: 100 % of control

## CCCCCC(C[N+](C)(C)C)C(=O)/C=C/c1ccc(Cl)c(Cl)c1 (configuration not stated)
[7]
  T/C: 91 % of control
[8]
  T/C: 98 % of control
[9]
  T/C: 95 % of control

## COC(=O)C(NC(=O)CNC(=O)CNC(=O)OCc1ccccc1)C(C)C (stereo not drawn) (Cbz-Gly-Gly-[ξV]-OMe)
[10]
  T/C: 96 % of control
[11]
  T/C: 99 % of control
[12]
  T/C: 92 % of control

## COC1OC(CCl)C(OS(C)(=O)=O)C(OC(=O)c2ccccc2)C1OC(=O)c1ccccc1 (configuration not stated)
[7]
  T/C: 102 % of control
[8]
  T/C: 97 % of control
[9]
  T/C: 102 % of control

## CCCCCCCCCCCCc1ccc2c(ccc3ccccc32)c1
[13]
  T/C: 95 % of control
[14]
  T/C: 98 % of control
[15]
  T/C: 98 % of control

## CCc1nc(N(C)CC(=O)O)nc(CC)c1-c1ccccc1O
[8]
  T/C: 111 % of control
[9]
  T/C: 101 % of control and 86 % of control
dose: 200.0 mg/kg/injection, schedule: Q04DX002 (ip), vehicle: Klucel (hydroxypropylcellulose) (HPC)
  T/C: 104 % of control
dose: 400.0 mg/kg/injection, schedule: Q04DX002 (ip), vehicle: Klucel (hydroxypropylcellulose) (HPC)
  T/C: 86 % of control

## O=C(O)/C=C/c1cccc(O)c1
[16]
  T/C: 98 % of control
[10]
  T/C: 92 % of control
[17]
  T/C: 102 % of control
[11]
  T/C: 97 % of control
[18]
  T/C: 97 % of control
[12]
  T/C: 98 % of control

## CC(Nc1ccccc1)(C(N)=O)c1ccccc1 (configuration not stated)
dose: 100.0 mg/kg/injection, schedule: Q01DX001 (ip), vehicle: saline sonified
  T/C: 96 % of control
dose: 200.0 mg/kg/injection, schedule: Q01DX001 (ip), vehicle: saline sonified
  T/C: 100 % of control
dose: 400.0 mg/kg/injection, schedule: Q01DX001 (ip), vehicle: saline sonified
  T/C: 97 % of control

## CCCCCCCCCCCCCCCCCCNC(=O)Nc1ccc(C)cc1
[1]
  T/C: 112 % of control
[2]
  T/C: 114 % of control
[3]
  T/C: 106 % of control
[4]
  T/C: 104 % of control
[5]
  T/C: 106 % of control
[6]
  T/C: 98 % of control

## CCCCC(C#N)(C(=O)OCC)C(C)(C)C (configuration not stated)
dose: 100.0 mg/kg/injection, schedule: Q01DX009 (ip), vehicle: saline
  T/C: 105 % of control
dose: 100.0 mg/kg/injection, schedule: Q04DX003 (ip), vehicle: saline
  T/C: 96 % of control
dose: 200.0 mg/kg/injection, schedule: Q01DX009 (ip), vehicle: saline
  T/C: 92 % of control
dose: 200.0 mg/kg/injection, schedule: Q04DX003 (ip), vehicle: saline
  T/C: 97 % of control
dose: 400.0 mg/kg/injection, schedule: Q01DX009 (ip), vehicle: saline
  T/C: 101 % of control
dose: 400.0 mg/kg/injection, schedule: Q04DX003 (ip), vehicle: saline
  T/C: 96 % of control

## N#C/C(=N\O)C(N)=O
[13]
  T/C: 102 % of control and 103 % of control
[14]
  T/C: 98 % of control and 107 % of control
[15]
  T/C: 93 % of control and 107 % of control

## CC1(/C=N/Nc2nnc(N/N=C/C3(C)CCC=CO3)c3ccccc23)CCC=CO1 (configuration not stated)
[19]
  T/C: 106 % of control
[20]
  T/C: 104 % of control
[21]
  T/C: 87 % of control

## O=S(=O)(F)c1ccccc1C[P+](c1ccccc1)(c1ccccc1)c1ccccc1
dose: 1.56 mg/kg/injection, schedule: Q01DX009 (ip), vehicle: Klucel (hydroxypropylcellulose) (HPC)
  T/C: 110 % of control
dose: 3.12 mg/kg/injection, schedule: Q01DX009 (ip), vehicle: Klucel (hydroxypropylcellulose) (HPC)
  T/C: 118 % of control
dose: 6.25 mg/kg/injection, schedule: Q01DX009 (ip), vehicle: Klucel (hydroxypropylcellulose) (HPC)
  T/C: 117 % of control

## CC(=O)Nc1ccc(O)cc1[N+](=O)[O-]
[10]
  T/C: 107 % of control
[11]
  T/C: 103 % of control
[12]
  T/C: 103 % of control

## COc1ccc(/C=C\C(=O)OCCCCOC(=O)/C=C/c2ccc(OC)cc2)cc1
dose: 50.0 mg/kg/injection, schedule: Q01DX001 (ip), vehicle: saline
  T/C: 95 % of control
[13]
  T/C: 95 % of control
[14]
  T/C: 95 % of control
[15]
  T/C: 95 % of control

## Cc1ccccc1SC(=O)Nc1cc(C(F)(F)F)ccc1Cl
[16]
  T/C: 100 % of control
[17]
  T/C: 98 % of control
[18]
  T/C: 100 % of control

## CCOCCOC(=O)CSCC(=O)OCCOCC
[13]
  T/C: 93 % of control
[14]
  T/C: 104 % of control
[15]
  T/C: 109 % of control

## CCCCCCCCCCCCCCCCCC(=O)OCCOCCOCCOCCOCCOCCOCCOCCOCCO
[13]
  T/C: 100 % of control
[14]
  T/C: 94 % of control
[15]
  T/C: 97 % of control

## CCSC1C(OC(C)=O)C(C(CSC(C)=O)OC(C)=O)OC1n1cc(C)c(=O)[nH]c1=O (configuration not stated)
dose: 100.0 mg/kg/injection, schedule: Q01DX005 (ip), vehicle: saline
  T/C: 94 % of control
dose: 200.0 mg/kg/injection, schedule: Q01DX005 (ip), vehicle: saline
  T/C: 98 % of control

## Cc1ccc2c(c1)C(c1ccccc1)(c1ccccc1)OC2
[19]
  T/C: 101 % of control
[20]
  T/C: 95 % of control
[21]
  T/C: 89 % of control
dose: 400.0 mg/kg/injection, schedule: Q01DX001 (ip), vehicle: carboxymethylcellulose (CMC)
  T/C: 101 % of control

## O=S(=O)(OCCNc1ccccc1)c1ccccc1
dose: 75.0 mg/kg/injection, schedule: Q01DX001 (ip), vehicle: saline
  T/C: 101 % of control
dose: 150.0 mg/kg/injection, schedule: Q01DX001 (ip), vehicle: saline
  T/C: 98 % of control
dose: 300.0 mg/kg/injection, schedule: Q01DX001 (ip), vehicle: saline
  T/C: 98 % of control

## Oc1ccc(C2CCCCC2)c(O)c1
dose: 50.0 mg/kg/injection, schedule: Q01DX009 (ip), vehicle: Klucel (hydroxypropylcellulose) (HPC)
  T/C: 96 % of control
dose: 50.0 mg/kg/injection, schedule: Q04DX003 (ip), vehicle: Klucel (hydroxypropylcellulose) (HPC)
  T/C: 101 % of control
[16]
  T/C: 96 % of control
[10]
  T/C: 98 % of control
[17]
  T/C: 100 % of control
[11]
  T/C: 103 % of control

## COc1ccccc1-c1cn(O)c2nc(=N)nc(N)c-2n1
dose: 100.0 mg/kg/injection, schedule: Q04DX002 (ip), vehicle: saline
  T/C: 97 % of control
dose: 200.0 mg/kg/injection, schedule: Q04DX002 (ip), vehicle: saline
  T/C: 94 % of control
dose: 400.0 mg/kg/injection, schedule: Q04DX002 (ip), vehicle: saline
  T/C: 111 % of control

## Cc1ccnc(NS(=O)(=O)c2ccc(N=Nc3ccc(O)c4ncccc34)cc2)n1
[13]
  T/C: 108 % of control
[14]
  T/C: 100 % of control
[15]
  T/C: 97 % of control

## CCNc1ccc(F)cc1[N+](=O)[O-]
dose: 100.0 mg/kg/injection, schedule: Q01DX009 (ip), vehicle: saline sonified
  T/C: 110 % of control
[10]
  T/C: 103 % of control
dose: 200.0 mg/kg/injection, schedule: Q01DX009 (ip), vehicle: saline sonified
  T/C: 102 % of control
[11]
  T/C: 104 % of control
dose: 400.0 mg/kg/injection, schedule: Q01DX009 (ip), vehicle: saline sonified
  T/C: 102 % of control
[12]
  T/C: 97 % of control

## COc1cc(C=Nc2ccc(-c3csc(COc4ccccc4)n3)cc2)ccc1N(CCCl)CCCl
dose: 3.7 mg/kg/injection, schedule: Q01DX015 (ip), vehicle: carboxymethylcellulose (CMC)
  T/C: 116 % of control
dose: 6.2 mg/kg/injection, schedule: Q01DX015 (ip), vehicle: carboxymethylcellulose (CMC)
  T/C: 117 % of control
dose: 9.3 mg/kg/injection, schedule: Q01DX015 (ip), vehicle: carboxymethylcellulose (CMC)
  T/C: 119 % of control
dose: 10.0 mg/kg/injection, schedule: Q01DX001 (ip), vehicle: carboxymethylcellulose (CMC)
  T/C: 121 % of control
dose: 15.0 mg/kg/injection, schedule: Q01DX015 (ip), vehicle: carboxymethylcellulose (CMC)
  T/C: 124 % of control
dose: 20.0 mg/kg/injection, schedule: Q01DX001 (ip), vehicle: carboxymethylcellulose (CMC)
  T/C: 123 % of control
dose: 40.0 mg/kg/injection, schedule: Q01DX001 (ip), vehicle: carboxymethylcellulose (CMC)
  T/C: 156 % of control
[19]
  T/C: 107 % of control
dose: 50.0 mg/kg/injection, schedule: Q01DX015 (ip), vehicle: carboxymethylcellulose (CMC)
  T/C: 96 % of control and 104 % of control and 92 % of control
dose: 66.6 mg/kg/injection, schedule: Q01DX001 (ip), vehicle: carboxymethylcellulose (CMC)
  T/C: 164 % of control
[20]
  T/C: 156 % of control
[21]
  T/C: 104 % of control
